Source: patent publication US20030134859A1 (SANKYO COMPANY, LIMITED, priority 2000, published 2003)

test system: ABCA1 mRNA; assay: Quantitative analysis of ABCA1 mRNA (TaqMan PCR) in RAW264.7 cells; format: cell-based, mouse; conditions: 100 nM test compound, 24 hr, normalised to β-actin, DMSO = 100
Protocol: The mouse monocyte/macrophage cell line, RAW264.7 (ATCC TIB71) was purchased from Dainippon Pharmaceutical Co., Ltd. As the medium, the Dulbecco's modified Eagle's medium (DMEM medium; GIBCO, Cat. No. 11995-040) containing bovine fetal serum (the final concentration: 10% (v/v), MOREGATE, lot No. 474030), penicillin G (the final concentration: 50 units/mL, GIBCO) and streptomycin (the final concentration: 20 μg/mL, GIBCO) was used.
The culture of RAW264.7 cells was carried out in a CO2 incubator (37° C., 95% R.H., 5% of CO2).
A 2 ml volume of RAW264.7 cells suspension (1×10^6 cells/mL) was plated in each well of a 6-well plate (2×10^6 cells/well) and the cells were incubated for 2 hr in a CO2 incubator. The test compounds dissolved in DMSO were diluted with DMEM medium by 20 times, and were added to the wells at a volume of 4 μL/well (final concentration of the test compound: 100 nM). As the control, the DMSO solution was diluted with the DMEM medium by 20 times, and was added to the wells at the volume of 4 μL/well. After the cells were cultured in a CO2 incubator for 24 hr, the medium was removed and the total RNA was purified by using an RNeasy Mini Kit (Qiagen), according to the protocol attached. The concentration of the RNA in the samples obtained was calculated from absorbance at 260 nm (A260=1=40 μg/ml). Six (6) μg of total RNA were diluted with RNAase-free water so as to be 22.6 μL, which was heated at 65° C. for 10 min, and then was cooled on ice. The RNA in the solution was used as the template, and the cDNA was synthesized by using a First-strand cDNA Synthesis Kit (Amersham Pharmacia Biotech). In this reaction, a solution was prepared having the following composition and was reacted at 37° C. for 1 hr.
After the reaction, 3 μL of soution were collected from each of the reaction mixtures of the test compound-treated cell samples and that of the control cell samples. The mixed solution was used as the standard solution. The standard solution and each reaction solution were purified with a Chroma Spin-100+DEPC-H2O Column according to the protocol attached, and they were used as the template for TaqMan PCR (Template). In order to draw the calibration curve, the standard solution was diluted by every 5 times for 5 steps and each solution was used for TaqMan PCR. TaqMan PCR was carried out in ABCA1 and β-actin. As Primers for use in the TaqMan PCR, 4 oligonucleotides (abca1 forward (S3), abca1 reverse (AS3), β-actin forward (S4) and β-actin reverse (AS4)) were designed which are shown in sequences No. 5 to 8 in the sequence table described later. The synthesis and purification of these 4 oligomers was ordered from Amersham Pharmacia Biotech Co.
As FAM-TAMRA labelled TaqMan Probe, 2 kinds of oligonucleotides (abca1 (p1) and β-actin (p2)) were designed and were ordered from Applied Biosystems Co. to synthesize and purify.
The following reaction mixture of ABCA1 or β-actin was divided into 2 wells of a MicroAmp Optical 96-well Reaction Plate (Applied Biosystem Co.). TaqMan Universal PCR Master Mix was purchased from Applied Biosystem Co.
The plate was covered with a MicroAmp Optical Cap (Applied Biosystems Co.), and TaqMan PCR was carried out by using an ABI PRISM 7,700 Sequence Detection System (Applied Biosystem Co.) under the following conditions:
An analysis was made according to the procedures described in the manual of Sequence Detection Software (Applied Biosystem Co.) and the increased rate of ABCA1 mRNA due to the test compound was calculated based on the following equation.
A: Amount of the ABCA1 mRNA in the presence of the test compound
B: Amount of the β-actin mRNA in the presence of the test compound
C: Amount of the ABCA1 mRNA in the presence of DMSO
D: Amount of the β-actin mRNA in the presence of DMSO
Increase Rate (%) of ABCA1 mRNA=(A/B)/(C/D)×100

SMILES	Rate of Increase (%) of ABCA1 mRNA [%]
CCCCCCCCN(CCCC)c1ccc(-c2ccc(NC(=O)c3cc([N+](=O)[O-])ccc3Cl)cc2)cc1.Cl [Example 223, N-[4-[4-(N-Butyl-N-octylamino)phenyl]phenyl]-(2-chloro-5-nitrophenyl)carboxamide mono-hydrochloride]	204.0
CCCCCCCCN(CCC)c1ccc(-c2ccc(NC(=O)c3cc([N+](=O)[O-])ccc3Cl)cc2)cc1 [Example 224, N-[4-[4-(N-Octyl-N-propylamino)phenyl]phenyl]-(2-chloro-5-nitrophenyl)carboxamide]	179.0
O=C(Nc1ccc(CCNC(=S)Nc2cccnc2)cc1)c1cc([N+](=O)[O-])ccc1Cl [Example 273, N-[4-[2-(Pyridin-3-yl)aminothiocarbonylaminoethyl]phenyl]-(2-chloro-5-nitrophenyl)carboxamide]	146.0
